Data published in patent US20250339399A1, “SUPRAMOLECULAR SELF-ASSEMBLY SYSTEM” (Beijing Creatron Institute of Pharmaceutical Research Co., …, priority 2022, published 2025).

Columns and labels:
[1] = Guest molecule concentration after incubation in initial medium without polymer (Comparative Example 1); format: physicochemical; conditions: 37° C.
Procedure, shortened: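 Dissolved guest content measured by HPLC of centrifuged supernatants (37° C., 13000 rpm, 5 min) sampled at 0.5 h, 3 h and 6 h. Incubation was polymer-free at 37° C.±0.5° C. in buffers of pH 2.0-7.4; nominal loading was set by maximum clinical dose.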

[2] = Binary supramolecular self-assembly systems of polymer and target: guest concentration over incubation time (Comparative Example 2); format: physicochemical; conditions: for Concentration of guest molecule in solution / Times that of the initial medium: 6 h
Protocol: Experiments were conducted according to the steps in Comparative Example 1, and quantitative analysis was carried out using the analytical method for each target to investigate the regulation ability […] stacking.

[3] = Binary (carrier), ternary and quaternary supramolecular self-assembly systems of polymer, carrier building block and target: guest concentration over incubation time (Examples 1-56); format: physicochemical; conditions: 6 h
Protocol: pH 2.0 hydrochloric acid, pH 4.5 acetate, and pH 6.5, pH 6.8, or pH 7.4 phosphate buffer solutions were prepared. The selection of each initial medium followed the principle that the solubility in the initial medium of the selected targets (or active ingredients) should low enough, but should meet the detection sensitivity and accuracy requirements of the corresponding analytical methods. Each buffer as initial media was placed in a 50 ml test tube with a stopper, shaken in a constant temperature air shaker at 37° C.±0.5° C., with an amplitude of 200 rpm, and incubated for 1 hour. […] Samples were taken at 0.5 h, 3 h and 6 h after incubation, centrifuged at 37° C., 13000 rpm for 5 minutes, and the supernatant was diluted at least 10 times with the mobile phase under the target analyte analytical method, filtered, the initial filtrate was discarded, and the continued filtrate was used as the test solution for injection analysis. The corresponding HPLC method under each target object item in Table 8 was used to determine the content of each target substance. When the solubility of the target in the initial medium is below the quantitative limit of the analytical method, a small amount of surfactant, such as sodium dodecyl sulfate (SDS), Tween20, or Tween80, can be added appropriately.
Experiments were conducted according to the steps in Comparative Example 1, and quantitative analysis was carried out using the analytical method for each target to investigate the regulation ability of each binary supramolecular self-assembly system built from 0.5% polymer and target on guest molecules stacking.
Ternary supramolecular self-assembly systems based on different polymers, carrier building blocks, and targets were built according to the experimental scheme in Table 12, to investigate the influence of synergistic regulation of the carrier building blocks and the polymers on the stacking of target molecules, as well as the stability of the supramolecular self-assembly systems jointly built by them over incubation time. The initial medium, quantitative analysis method, pre-treatment method, and initial theoretical concentration of the target, corresponding to each target molecule in the experiment, were consistent with those in Comparative Examples 1 and 2. After a target was added to the system, the target was uniformly dispersed by ultrasonication at 37° C. for half an hour and then shaken in a 37° C. constant temperature air shaker, and samples were collected after different incubation time, i.e. 0.5 h, 1 h, 2 h, 3 h, 4 h, and 6 h.

[4] = cited from earlier work
[5] = binary system with 0.5% polymer 102, incubation 0.5 h
[6] = binary system with 0.5% polymer 102, incubation 3 h
[7] = binary system with 0.5% polymer 102, incubation 6 h
[8] = binary system with 0.5% polymer 103, incubation 0.5 h
[9] = binary system with 0.5% polymer 103, incubation 3 h
[10] = binary system with 0.5% polymer 103, incubation 6 h
[11] = binary system with 0.5% polymer 104, incubation 0.5 h
[12] = binary system with 0.5% polymer 104, incubation 3 h
[13] = binary system with 0.5% polymer 104, incubation 6 h
[14] = quaternary: 0.25% 205 (102H+104) + 0.25% 313
[15] = quaternary: 0.25% 205 (102H+104) + 0.25% 318
[16] = quaternary: 204 (103E5+102H) + 301, % not stated
[17] = ternary: 0.25% 102H + 0.25% 313
[18] = ternary: 102H (0.25% where stated) + 301, carrier % not stated
[19] = ternary: 102H (0.25% where stated) + 302, carrier % not stated

CC(=O)c1c(C)c2cnc(Nc3ccc(N4CCNCC4)cn3)nc2n(C2CCCC2)c1=O [Palbociclib]
Concentration of guest molecule measured after different incubated time ([1]; 0.5 h, pH 6.8 phosphate buffer): 140.4 µg/mL
Concentration of guest molecule measured after different incubated time ([1]; 3 h, pH 6.8 phosphate buffer): 34.8 µg/mL
Concentration of guest molecule measured after different incubated time ([1]; 6 h, pH 6.8 phosphate buffer): 31.6 µg/mL
Concentration of the target in the solution measured after different incubation time ([2]; binary system with 0.5% polymer 101, incubation 0.5 h): 163.1 µg/mL
Concentration of the target in the solution measured after different incubation time ([2]; binary system with 0.5% polymer 101, incubation 3 h): 89.0 µg/mL
Concentration of the target in the solution measured after different incubation time ([2]; binary system with 0.5% polymer 101, incubation 6 h): 85.5 µg/mL
Concentration of the target in the solution measured after different incubation time [2, 5]: 205.7 µg/mL
Concentration of the target in the solution measured after different incubation time [2, 6]: 167.0 µg/mL
Concentration of the target in the solution measured after different incubation time [2, 7]: 154.0 µg/mL
Concentration of the target in the solution measured after different incubation time [2, 8]: 259.9 µg/mL
Concentration of the target in the solution measured after different incubation time [2, 9]: 126.5 µg/mL
Concentration of the target in the solution measured after different incubation time [2, 10]: 109.6 µg/mL
Concentration of the target in the solution measured after different incubation time [2, 11]: 105.4 µg/mL
Concentration of the target in the solution measured after different incubation time [2, 12]: 156.4 µg/mL
Concentration of the target in the solution measured after different incubation time [2, 13]: 144.8 µg/mL
Concentration of the target in the solution measured after different incubation time ([2]; binary system with 0.5% polymer 106, incubation 0.5 h): 131.3 µg/mL
Concentration of the target in the solution measured after different incubation time ([2]; binary system with 0.5% polymer 106, incubation 3 h): 60.3 µg/mL
Concentration of the target in the solution measured after different incubation time ([2]; binary system with 0.5% polymer 106, incubation 6 h): 58.2 µg/mL
Concentration of the target in the solution measured after different incubation time ([2]; binary system with 0.5% polymer 107, incubation 0.5 h): 103.5 µg/mL
Concentration of the target in the solution measured after different incubation time ([2]; binary system with 0.5% polymer 107, incubation 3 h): 32.0 µg/mL
Concentration of the target in the solution measured after different incubation time ([2]; binary system with 0.5% polymer 107, incubation 6 h): 27.0 µg/mL
Concentration of guest molecule in solution ([2]; binary: 0.5% 102H): 154.0 µg/mL
Times that of the initial medium ([2]; binary: 0.5% 102H): 4.9 times
Concentration of guest molecule in solution ([2]; binary: 0.5% 103E5): 105.4 µg/mL
Times that of the initial medium ([2]; binary: 0.5% 103E5): 3.3 times
Concentration of guest molecule in solution ([2]; binary: 0.5% 104): 144.8 µg/mL
Times that of the initial medium ([2]; binary: 0.5% 104): 4.6 times
Increase of the concentration of the guest molecule ([3]; 0.25% 102H, 1.0% 313 compared to the 0.25% 313 system): 16.4%
Concentration of guest molecule in solution ([3]; binary: 0.25% 301): 77.0 µg/mL
Concentration of guest molecule in solution ([3]; binary: 0.25% 302): 34.2 µg/mL
Concentration of guest molecule in solution ([3]; binary: 0.25% 310): 279.8 µg/mL
Concentration of guest molecule in solution ([3]; binary: 0.25% 313): 70.0 µg/mL
Concentration of guest molecule in solution ([3]; binary: 0.25% 318): 60.5 µg/mL
Concentration of guest molecule in solution [3, 14]: 250.7 µg/mL
Times that of the initial medium [3, 14]: 7.9 times
Concentration of guest molecule in solution [3, 15]: 257.8 µg/mL
Times that of the initial medium [3, 15]: 8.2 times
Concentration of guest molecule in solution [3, 16]: 250.4 µg/mL
Times that of the initial medium [3, 16]: 7.9 times
Concentration of guest molecule in solution ([3]; ternary: 0.25% 102H + 0.1% 313): 191.5 µg/mL
Times that of the initial medium ([3]; ternary: 0.25% 102H + 0.1% 313): 6.1 times
Concentration of guest molecule in solution ([3]; ternary: 0.25% 102H + 0.25% 302): 195.5 µg/mL
Concentration of guest molecule in solution ([3]; ternary: 0.25% 102H + 0.25% 310): 44.8 µg/mL
Concentration of guest molecule in solution [3, 17]: 361.6 µg/mL
Times that of the initial medium [3, 17]: 11.4 times
Concentration of guest molecule in solution ([3]; ternary: 0.25% 102H + 0.25% 318): 181.8 µg/mL
Concentration of guest molecule in solution ([3]; ternary: 0.25% 102H + 1.0% 313): 420.8 µg/mL
Times that of the initial medium ([3]; ternary: 0.25% 102H + 1.0% 313): 13.3 times
Concentration of guest molecule in solution ([3]; ternary: 0.25% 103E5 + 0.25% 302): 102.3 µg/mL
Concentration of guest molecule in solution ([3]; ternary: 0.25% 104 + 0.25% 302): 138.3 µg/mL
Concentration of guest molecule in solution [3, 18]: 126.9 µg/mL
Times that of the initial medium [3, 18]: 4.0 times
LogD7.4 or Log P [4]: 1.31

O=C1[C@H](CC[C@H](O)c2ccc(F)cc2)[C@@H](c2ccc(O)cc2)N1c1ccc(F)cc1 [Ezetimibe]
Concentration of guest molecule measured after different incubated time ([1]; 0.5 h, 0.05% SDS in pH 6.8 phosphate buffer): 6.6 µg/mL
Concentration of guest molecule measured after different incubated time ([1]; 3 h, 0.05% SDS in pH 6.8 phosphate buffer): 6.2 µg/mL
Concentration of guest molecule measured after different incubated time ([1]; 6 h, 0.05% SDS in pH 6.8 phosphate buffer): 6.4 µg/mL
Concentration of the target in the solution measured after different incubation time [2, 5]: 109.4 µg/mL
Concentration of the target in the solution measured after different incubation time [2, 6]: 117.2 µg/mL
Concentration of the target in the solution measured after different incubation time [2, 7]: 138.9 µg/mL
Concentration of the target in the solution measured after different incubation time [2, 8]: 8.4 µg/mL
Concentration of the target in the solution measured after different incubation time [2, 9]: 6.9 µg/mL
Concentration of the target in the solution measured after different incubation time [2, 10]: 0.9 µg/mL
Concentration of the target in the solution measured after different incubation time [2, 11]: 6.8 µg/mL
Concentration of the target in the solution measured after different incubation time [2, 12]: 3.6 µg/mL
Concentration of the target in the solution measured after different incubation time [2, 13]: 2.7 µg/mL
Times that of the initial medium ([2]; binary: 0.5% 101): 18 times
Concentration of guest molecule in solution ([2]; binary: 0.5% 102H): 86.6 µg/mL
Times that of the initial medium ([2]; binary: 0.5% 102H): 13.5 times
Concentration of guest molecule in solution [3, 18]: 168.1 µg/mL
Times that of the initial medium [3, 18]: 26 times
Concentration of guest molecule in solution [3, 19]: 188.6 µg/mL
Times that of the initial medium [3, 19]: 29.5 times
LogD7.4 or Log P [4]: 4.56
